Assay results as given in patent publication US20250188069A1, “COMPOUNDS AND METHODS FOR DEGRADING CASEIN KINASE 1 ALPHA” (PIN THERAPEUTICS, INC., priority 2022, published 2025).
Structures can show the parent of a compound that is named as a salt. Where two headings read alike, the source gives them in different places.

Key:
MV-4-11 cells = assay: AML cell viability assay (RealTime-Glo); format: cell-based; conditions: Homo sapiens, read-out: Cell viability classification
CK1α = CK1α (Homo sapiens, UniProt P48729+Q96SW2); assay: CK1α degradation, flow cytometry in MV4-11 cells; format: cell-based; set-up: CK1α levels were determined in MV-4-11 cells using Jess (Protein Simple); host or cells: MV-4-11; conditions: % reduction of CK1α compared to DMSO, MV4-11 cells at 316 nM for 16 hours, read-out: CK1α degradation classification
Sequence of CK1α (P48729 whole entry): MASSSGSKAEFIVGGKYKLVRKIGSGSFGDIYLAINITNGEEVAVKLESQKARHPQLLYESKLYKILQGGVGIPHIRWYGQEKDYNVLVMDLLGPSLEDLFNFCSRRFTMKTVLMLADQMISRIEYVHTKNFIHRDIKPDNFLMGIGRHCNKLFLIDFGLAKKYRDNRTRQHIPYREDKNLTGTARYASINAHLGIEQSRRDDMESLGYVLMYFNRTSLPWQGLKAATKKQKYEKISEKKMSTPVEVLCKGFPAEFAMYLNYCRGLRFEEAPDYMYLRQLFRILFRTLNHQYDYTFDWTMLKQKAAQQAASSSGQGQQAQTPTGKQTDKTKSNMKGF
Sequence of CK1α (Q96SW2 whole entry): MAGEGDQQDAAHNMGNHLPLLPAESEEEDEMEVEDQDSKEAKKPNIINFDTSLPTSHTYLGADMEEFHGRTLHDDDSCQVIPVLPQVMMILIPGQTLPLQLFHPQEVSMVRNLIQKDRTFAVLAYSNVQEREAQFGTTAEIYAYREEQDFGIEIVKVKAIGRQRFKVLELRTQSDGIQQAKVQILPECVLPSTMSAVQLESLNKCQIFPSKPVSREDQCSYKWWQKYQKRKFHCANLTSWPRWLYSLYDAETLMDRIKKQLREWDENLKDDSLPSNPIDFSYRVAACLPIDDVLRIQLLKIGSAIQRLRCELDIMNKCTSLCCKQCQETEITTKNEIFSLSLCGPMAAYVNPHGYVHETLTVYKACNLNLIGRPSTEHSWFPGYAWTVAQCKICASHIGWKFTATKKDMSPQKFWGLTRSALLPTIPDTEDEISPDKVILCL
Sequence of CK1α (Q16531 whole entry partner): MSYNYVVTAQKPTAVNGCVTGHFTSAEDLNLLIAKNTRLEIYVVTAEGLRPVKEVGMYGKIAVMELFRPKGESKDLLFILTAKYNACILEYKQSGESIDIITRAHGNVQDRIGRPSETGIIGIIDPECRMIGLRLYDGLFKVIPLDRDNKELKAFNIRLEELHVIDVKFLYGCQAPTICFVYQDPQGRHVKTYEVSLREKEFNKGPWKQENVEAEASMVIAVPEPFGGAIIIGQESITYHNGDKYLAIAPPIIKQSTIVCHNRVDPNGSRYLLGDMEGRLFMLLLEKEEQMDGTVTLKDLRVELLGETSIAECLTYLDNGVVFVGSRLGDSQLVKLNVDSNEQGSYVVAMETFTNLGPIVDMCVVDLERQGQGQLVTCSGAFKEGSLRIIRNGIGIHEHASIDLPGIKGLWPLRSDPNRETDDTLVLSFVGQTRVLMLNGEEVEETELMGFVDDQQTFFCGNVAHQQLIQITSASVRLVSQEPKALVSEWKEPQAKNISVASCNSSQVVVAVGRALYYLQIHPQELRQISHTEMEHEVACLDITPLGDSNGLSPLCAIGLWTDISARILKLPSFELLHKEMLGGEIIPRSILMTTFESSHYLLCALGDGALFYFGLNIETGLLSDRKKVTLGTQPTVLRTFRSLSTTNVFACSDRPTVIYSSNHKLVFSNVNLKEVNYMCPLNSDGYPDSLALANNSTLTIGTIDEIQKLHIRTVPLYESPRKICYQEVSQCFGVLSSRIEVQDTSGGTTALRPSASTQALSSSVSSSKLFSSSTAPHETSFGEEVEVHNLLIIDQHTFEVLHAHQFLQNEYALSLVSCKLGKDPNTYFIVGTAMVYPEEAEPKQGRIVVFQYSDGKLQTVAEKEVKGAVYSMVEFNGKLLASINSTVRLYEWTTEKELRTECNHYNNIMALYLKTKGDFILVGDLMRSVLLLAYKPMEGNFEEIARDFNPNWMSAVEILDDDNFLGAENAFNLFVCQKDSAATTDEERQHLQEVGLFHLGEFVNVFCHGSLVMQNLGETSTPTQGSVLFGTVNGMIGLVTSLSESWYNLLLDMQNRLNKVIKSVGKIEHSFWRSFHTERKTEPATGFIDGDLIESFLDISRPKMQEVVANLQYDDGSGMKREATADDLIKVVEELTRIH
Description: MV-4-11 cells were obtained from ATCC and grown in IMDM supplemented with 10% FBS. The cells were maintained at 37° C. under 5% CO2.
Compounds of the present disclosure were added to cells (final DMSO concentration of 0.5%) and incubated for 16 hours. CK1α level was determined in MV4-11 cells using flow cytometry (Luminex, Guava EasyCyte Plus). Briefly, cells were prepared with sequential 10% formalin and 70% methanol fixation. […] GuavaSoft Incyte software was used to analyse the flow cytometry data. Protein levels relative to DMSO are calculated for CK1α.
The efficacy of CK1α degradation of other part of compounds of the present disclosure was determined by treating MV4-11 cells at […] (Final DMSO concentration of 0.5%) for 16 hours. Protein levels relative to DMSO are calculated for CK1α.
Protein levels relative to DMSO are calculated for CK1α.

[1] = MV4-11, IC50 class, MV-4-11 cells, RealTime-Glo after 44 hrs of treatment (TABLE 3)
[2] = MV4-11, IC50 class, MV-4-11 cells, RealTime-Glo after 44 hrs of treatment (TABLE 5)

Compound | IC50 (MV-4-11 cells; [1]) [nM] | Dmax at 0.316 µM (CK1α) [%] | IC50 (MV-4-11 cells; [2]) [nM] | IC50 (MV-4-11 cells; MV4-11, 44 h) [nM]
C/C=C/CCN(CCCCN)c1cccc2c1CN(C1CCC(=O)NC1=O)C2=O (stereo not drawn) [Compound 93, (E)-3-(4-((4-aminobutyl)(pent-3-en-1-yl)amino)-1-oxoisoindolin-2-yl)piperidine-2,6-dione hydrochloride] | < 100 | > 75 | – | –
C/C=C\CCN(CCCCN)c1cccc2c1CN(C1CCC(=O)NC1=O)C2=O (stereo not drawn) [Compound 94, (Z)-3-(4-((4-aminobutyl)(pent-3-en-1-yl)amino)-1-oxoisoindolin-2-yl)piperidine-2,6-dione] | < 100 | > 75 | – | –
CC#CCCN(CCCCN)c1cccc2c1CN(C1CCC(=O)NC1=O)C2=O (stereo not drawn) [Compound 95, 3-(4-((4-aminobutyl)(pent-3-yn-1-yl)amino)-1-oxoisoindolin-2-yl)piperidine-2,6-dione, HCl] | 100 to 1000 | < 50 | – | –
CCCCCN(CCCCNCCCC)c1cccc2c1CN(C1CCC(=O)NC1=O)C2=O (stereo not drawn) [Compound 166, 3-(4-((4-(butylamino)butyl)(pentyl)amino)-1-oxoisoindolin-2-yl)piperidine-2,6-dione, HCl] | – | > 75 | – | 100 to 1000
CCCCCN(CCCCNCCC(C)C)c1cccc2c1CN(C1CCC(=O)NC1=O)C2=O (stereo not drawn) [Compound 167, 3-(4-((4-(isopentylamino)butyl)(pentyl)amino)-1-oxoisoindolin-2-yl)piperidine-2,6-dione. HCl] | 100 to 1000 | > 75 | – | –
CCCCCN(c1cccc2c1CN(C1CCC(=O)NC1=O)C2=O)[C@H]1CC[C@H](NC)CC1 (stereo partly drawn) [Compound 169, 3-(4-(((1R,4R)-4-(methylamino)cyclohexyl)(pentyl)amino)-1-oxoisoindolin-2-yl)piperidine-2,6-dione hydrochloride] | – | > 75 | – | < 100

The next lines start with results.

IC50 (MV-4-11 cells; [1]) [nM] | Dmax at 0.316 µM (CK1α) [%] | IC50 (MV-4-11 cells; [2]) [nM] | Compound | IC50 (MV-4-11 cells; MV4-11, 44 h) [nM]
100 to 1000 | > 75 | – | CCCCCN(c1cccc2c1CN(C1CCC(=O)NC1=O)C2=O)[C@H]1CC[C@H](NC(C)=O)CC1 (stereo partly drawn) [Compound 168, N-((1r,4r)-4-((2-(2,6-dioxopiperidin-3-yl)-1-oxoisoindolin-4-yl)(pentyl)amino)cyclohexyl)acetamide] | –
< 100 | > 75 | – | CC(C)(C)CCN(CCCCN)c1cccc2c1CN(C1CCC(=O)NC1=O)C2=O (stereo not drawn) [Compound 223, 3-(4-((4-aminobutyl)(3,3-dimethylbutyl)amino)-1-oxoisoindolin-2-yl)piperidine-2,6-dione] | –
< 100 | > 75 | – | N[C@H]1CC[C@H](N(CC2CC2)c2cccc3c2CN(C2CCC(=O)NC2=O)C3=O)CC1 (stereo partly drawn) [Compound 235, 3-(4-(((1r,4r)-4-aminocyclohexyl)(cyclopropylmethyl)amino)-1-oxoisoindolin-2-yl)piperidine-2,6-dione hydrochloride] | –
– | – | > 1000 | O=C1CCC(N2Cc3c(cccc3N(CCC3CC3)[C@H]3CC[C@@H](N4CC[C@@H](C(F)(F)F)C4)CC3)C2=O)C(=O)N1 (stereo partly drawn) [Compound 713A, 3-(4-((2-cyclopropylethyl)((1S,4s)-4-((R)-3-(trifluoromethyl)pyrrolidin-1-yl)cyclohexyl)amino)-1-oxoisoindolin-2-yl)piperidine-2,6-dione bis(2,2,2-trifluoroacetate)] | –
– | – | > 1000 | CN1CCC(CN(CCC2CC2)c2cccc3c2CN(C2CCC(=O)NC2=O)C3=O)CC1 (stereo not drawn) [Compound 714, 3-(4-((2-cyclopropylethyl)((1-methylpiperidin-4-yl)methyl)amino)-1-oxoisoindolin-2-yl)piperidine-2,6-dione] | –
– | – | > 1000 | O=C1CCC(N2Cc3c(cccc3N(CCC3CC3)[C@H]3CC[C@@H](N4CCC(F)(F)CC4)CC3)C2=O)C(=O)N1 (stereo partly drawn) [Compound 716A, 3-(4-((2-cyclopropylethyl)((1s,4s)-4-(4,4-difluoropiperidin-1-yl)cyclohexyl)amino)-1-oxoisoindolin-2-yl)piperidine-2,6-dione tris(2,2,2-trifluoroacetate)] | –
